From ChEMBL document CHEMBL1201862, “PubChem BioAssay data set” (2004)
Active and inactive are the calls of the source.

Key:
[1] = biological target: Cytochrome P450 3A4 (Homo sapiens, UniProt P08684);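 further: CYP3A4 tested as one member of a cytochrome P450 panel screen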
[2] = inhibitors of intracellular T. cruzi replication, confirmation, NIH3T3 host cells, beta-gal luminescence (AID 2044); type: functional, cell-based;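 further: intracellular parasites grown in NIH/3T3 mouse fibroblasts as host cells; luminescent beta-galactosidase reporter signal from transgenic T. cruzi replicating inside host cells; inhibitors lower the luminescence signal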
[3] = cytotoxicity toward NIH3T3 fibroblasts, dose response, counter-screen, cell-based, ATP luminescence, mouse fibroblasts (AID 2010); type: functional;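 further: cells exposed to compound for about 90 hours before reading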
[4] = biological target: Cytochrome P450 2C19 (Homo sapiens, UniProt P33261); assay: Cytochrome panel assay with activity outcomes. Panel member name: p450-cyp2c19 Compounds with AC50 equal or less than 10 uM are considered active; type: functional
Sequence of Cytochrome P450 2C19 (P33261 whole entry): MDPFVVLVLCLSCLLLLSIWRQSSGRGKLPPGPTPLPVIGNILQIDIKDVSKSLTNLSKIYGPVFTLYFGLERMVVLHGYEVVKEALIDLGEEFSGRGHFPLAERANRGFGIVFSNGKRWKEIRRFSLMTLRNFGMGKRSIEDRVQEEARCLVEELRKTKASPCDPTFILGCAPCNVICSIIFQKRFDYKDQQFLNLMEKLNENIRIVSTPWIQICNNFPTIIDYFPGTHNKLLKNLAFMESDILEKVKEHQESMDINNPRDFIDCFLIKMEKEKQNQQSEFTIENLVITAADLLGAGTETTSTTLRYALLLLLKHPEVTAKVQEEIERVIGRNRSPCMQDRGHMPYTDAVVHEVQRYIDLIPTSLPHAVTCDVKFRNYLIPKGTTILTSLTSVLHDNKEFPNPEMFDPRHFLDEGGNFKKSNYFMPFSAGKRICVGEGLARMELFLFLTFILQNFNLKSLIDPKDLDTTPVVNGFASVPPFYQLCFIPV

[5] = biological target: Cytochrome P450 2C9 (Homo sapiens, UniProt P11712)
Sequence of Cytochrome P450 2C9 (P11712 whole entry): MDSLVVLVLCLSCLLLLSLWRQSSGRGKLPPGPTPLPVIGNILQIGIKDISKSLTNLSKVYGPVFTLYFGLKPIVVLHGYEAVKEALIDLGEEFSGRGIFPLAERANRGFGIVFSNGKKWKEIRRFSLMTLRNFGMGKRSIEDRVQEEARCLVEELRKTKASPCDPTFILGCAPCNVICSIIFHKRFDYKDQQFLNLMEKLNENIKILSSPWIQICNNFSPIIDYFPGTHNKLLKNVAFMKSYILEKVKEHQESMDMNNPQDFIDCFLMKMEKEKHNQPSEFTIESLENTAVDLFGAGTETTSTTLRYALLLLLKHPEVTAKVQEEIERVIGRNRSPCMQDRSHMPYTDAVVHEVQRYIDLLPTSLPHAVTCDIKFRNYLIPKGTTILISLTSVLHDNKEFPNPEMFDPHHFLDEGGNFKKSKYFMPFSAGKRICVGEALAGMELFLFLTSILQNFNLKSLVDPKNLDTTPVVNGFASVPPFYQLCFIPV

[6] = test system: Streptococcus sp. 'group A'; assay: growth inhibition of control SK(-) GAS strain, dose response, counter-screen for streptokinase expression inhibitor project, luminescence, kanamycin, BacTiterGlo, confirmation (AID 1900); type: functional, organism-based
[7] = test system: Streptococcus; assay: Group A Streptococcus viability loss, dose response, counter-screen for streptokinase expression inhibitor project, luminescence, BacTiterGlo (AID 1915); type: functional, organism-based;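 further: potency for reduction of bacterial viability or growth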
[8] = biological target: T1, Streptokinase A (Streptococcus pyogenes serotype M1, UniProt P10520); assay: S. pyogenes streptokinase expression inhibitors, potency, dose response, plasminogen activation absorbance, OD405 (AID 1914); type: functional, Streptococcus pyogenes M1 GAS;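 further: secreted streptokinase activity via plasminogen activation per viability signal from cell pellet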
T1 sequence (P10520 whole entry): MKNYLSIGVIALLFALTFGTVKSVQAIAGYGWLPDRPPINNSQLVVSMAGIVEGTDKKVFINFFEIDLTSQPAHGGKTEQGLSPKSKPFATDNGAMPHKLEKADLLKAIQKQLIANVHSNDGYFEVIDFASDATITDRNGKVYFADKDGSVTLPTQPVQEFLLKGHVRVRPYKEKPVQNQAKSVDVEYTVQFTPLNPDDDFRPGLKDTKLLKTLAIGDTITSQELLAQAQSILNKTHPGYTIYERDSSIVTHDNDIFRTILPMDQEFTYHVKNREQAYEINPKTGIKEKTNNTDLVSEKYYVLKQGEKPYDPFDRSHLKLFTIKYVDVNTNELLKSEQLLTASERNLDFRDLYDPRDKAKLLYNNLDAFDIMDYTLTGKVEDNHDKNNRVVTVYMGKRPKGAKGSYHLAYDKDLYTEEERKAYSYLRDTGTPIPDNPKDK

[9] = biological target: T2, Corticotropin-releasing factor receptor 2/Corticotropin-releasing factor-binding protein (Homo sapiens, UniProt P24387+Q13324); assay: activators of CRF receptor 2 with binding protein – uHTS hits, confirmation (AID 602473); type: functional; details: read-out: EC50_Mean
T2 sequence (Q13324 whole entry): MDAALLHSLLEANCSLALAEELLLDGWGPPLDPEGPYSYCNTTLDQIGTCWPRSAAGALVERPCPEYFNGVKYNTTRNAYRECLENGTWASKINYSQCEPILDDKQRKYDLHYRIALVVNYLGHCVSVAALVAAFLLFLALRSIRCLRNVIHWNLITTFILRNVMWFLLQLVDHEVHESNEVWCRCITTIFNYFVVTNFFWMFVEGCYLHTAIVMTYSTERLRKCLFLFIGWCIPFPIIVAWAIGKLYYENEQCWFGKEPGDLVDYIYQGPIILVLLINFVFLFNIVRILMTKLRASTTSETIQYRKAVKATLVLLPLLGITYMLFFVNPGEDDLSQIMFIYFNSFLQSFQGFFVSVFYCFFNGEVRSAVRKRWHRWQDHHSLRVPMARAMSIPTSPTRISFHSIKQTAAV
T2 sequence (P24387 whole entry): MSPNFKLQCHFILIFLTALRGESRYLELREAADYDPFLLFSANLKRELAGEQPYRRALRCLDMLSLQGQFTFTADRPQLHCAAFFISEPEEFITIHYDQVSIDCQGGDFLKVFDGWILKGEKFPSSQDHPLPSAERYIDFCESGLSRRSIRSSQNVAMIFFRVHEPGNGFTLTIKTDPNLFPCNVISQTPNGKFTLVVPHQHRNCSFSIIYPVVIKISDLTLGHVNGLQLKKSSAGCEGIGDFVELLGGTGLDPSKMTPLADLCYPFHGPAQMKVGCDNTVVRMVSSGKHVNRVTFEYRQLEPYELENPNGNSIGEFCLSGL

Sequence of Cytochrome P450 3A4 (P08684 whole entry): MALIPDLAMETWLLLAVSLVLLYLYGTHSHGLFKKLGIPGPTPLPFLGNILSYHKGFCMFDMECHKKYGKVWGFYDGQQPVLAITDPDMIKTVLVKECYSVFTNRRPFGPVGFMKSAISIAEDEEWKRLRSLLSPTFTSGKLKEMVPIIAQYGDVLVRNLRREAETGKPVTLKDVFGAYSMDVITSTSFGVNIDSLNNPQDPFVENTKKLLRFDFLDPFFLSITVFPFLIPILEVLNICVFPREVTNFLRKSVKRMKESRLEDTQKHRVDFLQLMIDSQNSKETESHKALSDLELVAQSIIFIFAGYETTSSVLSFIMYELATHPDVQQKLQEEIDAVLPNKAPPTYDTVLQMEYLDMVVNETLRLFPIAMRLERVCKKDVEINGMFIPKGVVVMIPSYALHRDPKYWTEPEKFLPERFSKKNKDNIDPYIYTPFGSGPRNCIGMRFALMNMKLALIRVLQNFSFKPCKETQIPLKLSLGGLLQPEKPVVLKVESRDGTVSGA

C=CCNC(=O)c1cccn1-c1ccsc1C(=O)OC
AC50 [1]: 14.1 µM (inconclusive)

CCS(=O)(=O)N1CCN(c2ccc(C(=O)NC3C4CC5CC(C4)CC3C5)cc2[N+](=O)[O-])CC1 (centres undefined)
EC50 [2]: 2.32 µM (active)
EC50 [3]: > 30 µM (not active)

Cc1cn(CC[C@H](N)C(=O)O)c(=O)[nH]c1=O
AC50 [4]: inconclusive

COc1ccc(NC(=O)c2cccc(Cn3cc(Br)c([N+](=O)[O-])n3)c2)c(C)c1
EC50 [2]: 0.32 µM (active)
EC50 [3]: 9.14 µM (active)

Cc1noc(C)c1-c1nccc(N(C)Cc2ccco2)n1
AC50 [1]: 25.1 µM (inconclusive)

Cc1nc(Nc2ccc(S(=O)(=O)N3CCCCC3C)cc2)c2nnn(Cc3ccccc3)c2n1 (centres undefined)
EC50 [2]: 1.92 µM (active)
EC50 [3]: > 60 µM (not active)

COc1ccc2c(c1)CCCC21NC(=O)N(CC(N)=O)C1=O (centres undefined)
AC50 ([4]; read-out: AC50): 39.8 µM (inconclusive)

O=C(Nc1nnc(C2CC2)s1)c1ccncc1
AC50 [1]: 14.1 µM (inconclusive)

Fc1ccc(NC(=S)N2CCn3cccc3C2c2cccnc2)cc1 (centres undefined)
EC50 [2]: 0.229 µM (active)
EC50 [3]: > 60 µM (not active)

Cn1cccc1C(=O)N1CCC2(CCCN(c3ccncc3)C2)CC1
AC50 [5]: 25.1 µM (inconclusive)

O=C(COc1ccccc1)N1CCN(c2nnc(-c3ccccc3)c3ccccc23)CC1
EC50 [2]: 1.77 µM (active)
EC50 [3]: > 60 µM (not active)

c1cncc(-c2nc(NCCCN3CCOCC3)c3c4c(sc3n2)CCC4)c1
EC50 [2]: 2.58 µM (active)
EC50 [3]: > 60 µM (not active)

Cc1ccc(NS(=O)(=O)c2cc([N+](=O)[O-])ccc2NN=C(S)Nc2cccc(Cl)c2)c(C)c1
EC50 [6]: 0.833 µM (active)
EC50 [7]: 2.37 µM (active)

CN(CCOc1ccccc1)CC(O)COCc1ccccc1F (centres undefined)
EC50 [2]: 0.526 µM (active)
EC50 [3]: > 60 µM (not active)

COc1ccc(Cc2noc(CN3CCN(Cc4cccc(Cl)c4)CC3)n2)cc1OC
EC50 [2]: 0.788 µM (active)
EC50 [3]: > 30 µM (not active)

CC1(C)CC2CC(C)(CN2C(=O)c2ccc([N+](=O)[O-])cc2[N+](=O)[O-])C1 (centres undefined)
EC50 [2]: 0.955 µM (active)
EC50 [3]: > 60 µM (not active)

CCCCCCC(=O)NN/C=C1/C(=O)NC(=S)N(CCCC)C1=O
EC50 [6]: 5.51 µM (active)
EC50 [8]: > 150 µM (not active)
EC50 [7]: 49.3 µM (active)

Cc1nc2cnc(N3CCOCC3)nc2n(C2CC2)c1=O
AC50 [1]: 15.8 µM (inconclusive)

COc1ccc2c(CC#N)c[nH]c2c1
EC50 [9]: > 53 µM (inactive)

O=S(=O)(NC(=NCc1ccccc1)c1ccccc1)c1ccc(Br)cc1
EC50 [6]: > 150 µM (not active)
EC50 [8]: 33.4 µM (active)
EC50 [7]: > 150 µM (not active)

CN=C(S)Nc1ccc2nc(C)c(C)nc2c1
AC50 ([4]; read-out: AC50): 39.8 µM (inconclusive)
AC50 [1]: 17.8 µM (inconclusive)

Cc1cc(Oc2ccc(Cl)cc2)nc(-c2ccccc2O)n1
EC50 [6]: > 150 µM (not active)
EC50 [8]: 14.6 µM (active)
EC50 [7]: > 150 µM (not active)

CCC1CCCCN1C(=O)COC(=O)COc1ccc(Br)cc1 (centres undefined)
EC50 [9]: > 53 µM (inactive)

Cc1cc2c(NC(=O)Nc3ccc(C(F)(F)F)cc3)cccc2nn1
EC50 [2]: 4.55 µM (active)
EC50 [3]: > 60 µM (not active)

CC(=O)N1CCC[C@@]2(CCN(c3ccncc3)C2)C1
AC50 [1]: 25.1 µM (inconclusive)

CN1CCN(c2oc(COc3ccc(-c4ccccc4)cc3)nc2C#N)CC1
EC50 [2]: 0.226 µM (active)
EC50 [3]: > 60 µM (not active)

CN(C(=O)Cc1c(C(=O)O)n(C)c2ccccc12)c1ccc(F)cc1
EC50 [6]: > 150 µM (not active)
EC50 [8]: > 150 µM (not active)
EC50 [7]: > 150 µM (not active)

CCCCN=C(S)N1CCn2cccc2C1c1cccnc1 (centres undefined)
EC50 [2]: 1.77 µM (active)
EC50 [3]: > 60 µM (inconclusive)

C=CCC[C@H](Cc1ccc(F)cc1)C(=O)OC[C@H](Cc1c[nH]c2ccccc12)NC(=O)[C@@H](CC=C)CC(=O)NCCO
EC50 [9]: 12.8 µM (active)

COc1ccc(C(=O)Nc2scc(-c3ccc(Cl)cc3Cl)c2C(N)=O)cc1
AC50 [1]: 28.2 µM (inconclusive)

CCOc1ccc(NC(=O)CCSc2nc3c(c(CC)c2C#N)C(=O)CC(C)(C)C3)cc1
EC50 [2]: 2.94 µM (active)
EC50 [3]: > 60 µM (inconclusive)

CCC1(CC)C(=O)N(Cc2ccccc2)C(=O)N(Cc2ccccc2)C1=O
EC50 [2]: 1.71 µM (active)
EC50 [3]: > 30 µM (not active)

CCOC(=O)C1=C(N)c2ccccc2CC1C1CCCC1 (centres undefined)
EC50 [6]: 7.81 µM (active)
EC50 [8]: 19.3 µM (active)
EC50 [7]: 11.9 µM (active)

COc1ccccc1NC(=O)N1CCCC1C(=O)NCc1ccc2c(c1)OCO2 (centres undefined)
AC50 ([4]; read-out: AC50): 28.2 µM (inconclusive)

Cc1ccc(S(=O)(=O)NC2=NC(=O)/C(=C/c3cccnc3)S2)cc1
AC50 [1]: 0.891 µM (inconclusive)

CCc1ccccc1N1CN(Cc2ccco2)CNC1=S
EC50 [9]: > 53 µM (inactive)

CCOc1ccc(Br)cc1C1C(C(=O)OC)=C(N)Oc2cc(N(C)C)ccc21 (centres undefined)
EC50 [2]: 0.826 µM (active)
EC50 [3]: 8.1 µM (active)

CCC1(C)CC(=O)NC(=O)C1 [BEMEGRIDE]
AC50 [4]: inconclusive

COc1ccc(S(=O)(=O)N2Cc3ccccc3CC2C(=O)Nc2nccs2)cc1 (centres undefined)
AC50 [1]: 3.55 µM (active)

O=C(C/C=N/OCc1ccc(F)cc1Cl)c1cnc(-c2ccccc2)s1
AC50 [1]: 14.1 µM (inconclusive)

COc1cccc(-c2cc(C(=O)NCC3CCCO3)c3cc(Br)cc(C)c3n2)c1 (centres undefined)
EC50 [6]: > 150 µM (not active)
EC50 [8]: > 150 µM (not active)
EC50 [7]: > 150 µM (not active)

Cn1c(S)nnc1CNS(=O)(=O)c1ccc(F)cc1
AC50 ([4]; read-out: AC50): 39.8 µM (inconclusive)

CCOC(=O)NC1(C(F)(F)F)C(=O)N(Cc2ccccc2)C2=C1C(=O)CC(C)(C)C2 (centres undefined)
AC50 [5]: 28.2 µM (inconclusive)

Cc1ncsc1CCCl [CLOMETHIAZOLE]
AC50 [5]: 2.51 µM (inconclusive)

CCCC(=O)Nc1nc(-c2ccc3c(c2)CCN3S(C)(=O)=O)cs1
AC50 [1]: 7.94 µM (inconclusive)

COc1ccc(-n2c(=O)cnc3cnc(Oc4ccccc4)nc32)cc1
AC50 ([4]; read-out: AC50): 39.8 µM (inconclusive)

CCc1ccc(S(=O)(=O)NCC2(N3CCOCC3)CCCCC2)cc1
EC50 [9]: 6.83 µM (active)

N#Cc1cccc(-c2nc3cnc(N4CCNCC4)nc3n(C3CC3)c2=O)c1
AC50 [1]: 20 µM (inconclusive)

Cc1ccc(NC(=S)/N=C(\N)Nc2nc(C)c3cc(C)c(C)cc3n2)cc1C
EC50 [2]: 1.98 µM (active)

O=c1c(-c2ccc(F)cc2)nc2cnc(N3CCOCC3)nc2n1Cc1cccs1
AC50 [1]: 15.8 µM (inconclusive)

Fc1ccc(COc2ccccc2CNCc2ccncc2)cc1
EC50 [2]: 2.14 µM (active)

O=C(CCCCCn1c(=S)[nH]c2cc3c(cc2c1=O)OCO3)N1CCN(C2CCCCC2)CC1
AC50 ([4]; read-out: AC50): 7.08 µM (inconclusive)

Cc1noc(C)c1C(=O)N1CCC2(CCCN(Cc3nccs3)C2)CC1
AC50 [1]: 12.6 µM (inconclusive)

COc1cc(N)c(Cl)cc1C(=O)CCC1CCN(CCNS(C)(=O)=O)CC1
AC50 [1]: 15.8 µM (inconclusive)

COc1ccc(NC(=O)C(OC(=O)c2cnc(C)cn2)c2ccccc2)cc1Cl (centres undefined)
EC50 [6]: 4.66 µM (active)
EC50 [8]: > 150 µM (not active)
EC50 [7]: > 150 µM (not active)

CC(C)(C)[Si](C)(C)c1c2c(nc3ccc(OCc4ccccc4)cc13)-c1cccc(=O)n1C2
AC50 [5]: 20 µM (inconclusive)

COC(=O)NC/C=C\c1nc(CC/C=C\C(=O)O[C@H]2C[C@H]3CC(=O)O[C@@H](/C=C\CC(C)C)C[C@@H]4CC[C@H](C)[C@H](C[C@@H](OC)C[C@H](C2)O3)O4)co1
AC50 [4]: inconclusive

OCCNc1ncnc2nc[nH]c12
AC50 [1]: 0.251 µM (inconclusive)
